{"source": "paper PMC9570207", "about": "“Pharmacokinetics of Myo-Inositol in a Wistar Rat Animal Model” (International Journal of Molecular Sciences, 2022)", "key": {"[1]": {"set-up": "method as in PMID 32650579", "details": "cited from earlier work"}, "systolic blood pressure": {"tested_on": "systolic blood pressure", "set-up": "method as in PMID 33113433", "details": "3 mg/kg, Wistar rats; cited from earlier work"}, "[2]": {"tested_on": "angiotensin-converting enzyme", "set-up": "method as in PMID 33113433", "details": "cited from earlier work"}, "[3]": {"details": "rat, in vivo, po, 25 mg/kg; cited from earlier work"}, "[4]": {"tested_on": "alkaline phosphatases from bovine intestinal mucosa", "set-up": "method as in doi:10.1016/S0928-0987(97)00019-5", "details": "bovine intestinal alkaline phosphatase; cited from earlier work"}, "[5]": {"test": "Pharmacokinetics of myo-inositol in serum after oral gavage, one-compartment PK model", "format": "in vivo, Wistar rat", "details": "2 g/kg oral", "description": "The experiment was performed on male Wistar rats (n = 9). We used male Wistar rats in our study because hormone changes throughout the female estrus cycle may have caused female rats to react differently, making them unpredictable and providing variable results during repeated experiments. All rats were 6 weeks old and had no morphological features deviating from the standard Wistar animal model. Animals were housed in a temperature-controlled room with a 12 h light/dark cycle and free access to water and food. The study was conducted in compliance with the Local Ethics Committee for Animal Experiments in Olsztyn. Each animal received a solution of myo-inositol (2 g/kg) in distilled water by oral gavage (Agnthos, curved gastric probe, 16G, 3 mm, 75 mm tip). The animals were fasted before the administration of myo-inositol (12 h since the last meal). Food was allowed for 2 h after administration of the compound. Access to water was unlimited. In order to reduce the amount of blood collected from a single animal, the animals were divided into three groups (n = 3).\nFor removing of proteins, 160 μL of acetonitrile (containing […] of xylitol, as an internal standard) was added to 50 μL of rat plasma and the sample was shaken for 5 min (1300 rpm, Vortex Genie 2, Scientific Industries, Bohemia, NY, USA). After centrifugation (20,000× g at 4 °C for 10 min), the supernatant was transferred into glass chromatographic vials and concentrated in a speed vacuum evaporator to dryness. Dry residues were derivatized with a mixture of trimethylsilylimidazole (TMSI) and pyridine (1:1, v/v). TMS-derivatives of myo-inositol were analyzed by the high-resolution gas chromatography method on a gas chromatograph GC2010Plus (Shimadzu, Tokyo, Japan) with a capillary column ZEBRON ZB-1 (15 m length, 0.25 mm diameter and 0.1 μm film thickness, Phenomenex, Torrance, CA, USA). The injector temperature was 325 °C and the initial column oven temperature was 150 °C. Helium was used as a carrier gas (at a flow rate of 1.18 mL min^−1). Afterwards, the sample injection (1 μL, in a split ratio 10:1) was ramped sequentially to 200 °C at a rate of 20 °C min^−1, to 300 °C at 30 °C min^−1 and to 335 °C at 20 °C min^−1. The final temperature was held for 2.42 min and the total time of analysis was 10 min. The detector was maintained at 350 °C. Myo-inositol was quantified by using the standard: myo-inositol from Sigma. The content of myo-inositol was calculated from the standard curves of appropriate components.\nThe data fitting was performed with NONMEM software (Version 7.3.0; ICON Development Solutions, Ellicot City, MD, USA) and the Gfortran compiler 9.0. NONMEM runs were executed using Wings for NONMEM (WFN730; http://wfn.sourceforge.net). The NONMEM data processing and plots were performed in Matlab Software (Version 0.1; The MathWorks, Natick, MA, USA). The schematic representation of the PK model is given in Figure 4. dA/dt=−ka∗AA(0)=DPO dX/dt=k−CL/F/V/F∗A+ka∗AX(0)=C0∗V/F where A and X denote the amount of myo-inositol in the absorption and central compartment, F denotes bioavailability, DPO denotes an oral dose of myo-inositol, ka denotes absorption rate constant, kin denotes an endogenous input of myo-inositol, CL denotes clearance, V denotes volume of distribution, and C0 denotes endogenous concentration of myo-inositol. CL and V were estimated as apparent due to uncertain bioavailability (CL/F and V/F). The steady-state concentration of myo-inositol implies the following relationship: k=C0∗CL/F\nThe concentration of myo-inositol in serum is given by: C=X/V/F\nThe observed concentrations (Cobs) were related to model predictions through the following equation (proportional residual error model): Cobs=C∗(1+ε) where ε is a normal random variable with standard deviation σ."}, "[6]": {"details": "100 mg/kg oral, male Wistar rats, liver"}}, "note": "Like-named read-outs stand apart in the source and are kept apart here."}
{"smiles": "CO[C@H]1[C@H](O)[C@@H](O)[C@@H](O)[C@H](O)[C@@H]1O", "note": "[DP, D-pinitol]", "values": [{"measurement": "Time at which plasma DP level became detectable", "setting": "[1]; 100 mg/kg oral, 18 h food-deprived male Wistar rats, plasma", "value": 10, "unit": "min"}, {"measurement": "Time at which liver concentration became detectable", "setting": "[1]; [6]", "value": 30, "unit": "min"}, {"measurement": "Time of peak liver concentration", "setting": "[1]; [6]", "value": 120, "unit": "min"}, {"measurement": "Time of plasma peak", "setting": "[1]; 100 mg/kg oral, male Wistar rats, plasma", "value": 1, "unit": "h"}, {"measurement": "Time of peak in liver", "setting": "[1]; 500 mg/kg oral, Wistar rats, liver", "value": 120, "unit": "min"}, {"measurement": "Time of peak in plasma", "setting": "[1]; 500 mg/kg oral, Wistar rats, plasma", "value": 120, "unit": "min"}, {"measurement": "Accumulation in the liver", "setting": "[1]; oral DP, Wistar rats, liver", "value": "no accumulation was detected"}, {"measurement": "Half-life time, liver", "setting": "[1]; oral DP, Wistar rats, liver", "value": 2.57, "unit": "h"}, {"measurement": "Half-life time, plasma", "setting": "[1]; oral DP, Wistar rats, plasma", "value": 1.8, "unit": "h"}, {"measurement": "Time after which completely cleared", "setting": "[1]; oral DP, Wistar rats", "value": 6, "unit": "h"}]}
{"smiles": "COC1[C@H](O)[C@H](O)C(O)[C@H](O)[C@H]1O", "note": "(stereo partly drawn) [LB, L-(+)-bornesitol]", "values": [{"measurement": "Effect on systolic blood pressure", "setting": "systolic blood pressure", "value": "reduced the systolic blood pressure"}, {"measurement": "Angiotensin-converting enzyme inhibition", "setting": "[2]", "value": "potent"}, {"measurement": "Dose proportionality of peak concentration and AUC", "setting": "[3]", "value": "non-linear pharmacokinetics"}, {"measurement": "Time to peak plasma concentration", "setting": "[3]", "value": "approximately 1 h"}, {"measurement": "half-life", "setting": "[3]", "value": "1.202 to 2.0615", "unit": "h"}]}
{"smiles": "O=P(O)(O)OC1[C@H](OP(=O)(O)O)[C@H](O)C(O)[C@H](O)[C@H]1OP(=O)(O)O", "note": "(stereo partly drawn) [a-trinositol, d-myo-inositol 1,2,6-trisphosphate]", "values": [{"measurement": "Dephosphorylation by intestinal enzymes", "setting": "[4]", "value": "extensive dephosphorylation"}]}
{"smiles": "O[C@H]1[C@H](O)[C@@H](O)[C@H](O)[C@@H](O)[C@H]1O", "note": "[myo-inositol]", "values": [{"measurement": "Evidence of harm from the dosage during the study", "setting": "[5]; Wistar rats", "value": "no significant evidence of harm"}, {"measurement": "Time after which the level of MI started to drop", "setting": "[5]; Wistar rats", "value": 2, "unit": "h"}, {"measurement": "Time of highest peak of MI after administration", "setting": "[5]; Wistar rats", "value": 1, "unit": "h"}, {"measurement": "Serum level approximately after 24 h compared with before administration", "setting": "[5]; Wistar rats, 24 h", "value": "still higher than before administration"}, {"measurement": "k el", "setting": "[5]; male, rat, serum, secondary parameter, Wistar rats, read-out: Kel, Elimination rate constant, (CL/F)/(V/F) (converted)", "value": "4.72e-05", "unit": "s⁻¹"}, {"measurement": "half-life", "setting": "[5]; male, rat, serum, secondary parameter, Wistar rats, read-out: T0.5, Biological half-life, ln(2)/kel (converted)", "value": 4.08, "unit": "h"}, {"measurement": "Mean MI in Rat Serum", "setting": "[5]; rat 1A (ID:1), group 1, times 0, 0.25, 0.5, 1, 24 h", "value": 45.69, "unit": "µg/mL"}, {"measurement": "Mean MI in Rat Serum", "setting": "[5]; rat 1B (ID:4), group 2, times 0, 2, 4, 8, 12, 24 h", "value": 45.70, "unit": "µg/mL"}, {"measurement": "Mean MI in Rat Serum", "setting": "[5]; rat 1C (ID:7), group 3, times 0, 1.5, 36, 48 h", "value": 46.23, "unit": "µg/mL"}, {"measurement": "Mean MI in Rat Serum", "setting": "[5]; rat 2A (ID:2), group 1, times 0, 0.25, 0.5, 1, 24 h", "value": 60.00, "unit": "µg/mL"}, {"measurement": "Mean MI in Rat Serum", "setting": "[5]; rat 2B (ID:5), group 2, times 0, 2, 4, 8, 12, 24 h", "value": 46.23, "unit": "µg/mL"}, {"measurement": "Mean MI in Rat Serum", "setting": "[5]; rat 2C (ID:8), group 3, times 0, 1.5, 36, 48 h", "value": 49.38, "unit": "µg/mL"}, {"measurement": "Mean MI in Rat Serum", "setting": "[5]; rat 3A (ID:3), group 1, times 0, 0.25, 0.5, 1, 24 h", "value": 57.46, "unit": "µg/mL"}, {"measurement": "Mean MI in Rat Serum", "setting": "[5]; rat 3B (ID:6), group 2, times 0, 2, 4, 8, 12, 24 h", "value": 39.86, "unit": "µg/mL"}, {"measurement": "Mean MI in Rat Serum", "setting": "[5]; rat 3C (ID:9), group 3, times 0, 1.5, 36, 48 h", "value": 38.33, "unit": "µg/mL"}, {"measurement": "AUC, Area under concentration–time curve, F·D/CL", "setting": "[5]; secondary parameter, Wistar rats", "value": 2.34, "unit": "mg·h/L/kg"}]}
